Measurements: PMC8482771 (ACS Omega, 2021)

Experiments:
Format in all cases: cell-based
[1] = molecular target: T1, h-P2X2R (Homo sapiens, UniProt Q9UBL9); assay: Ca2+ influx assay
T1 sequence (Q9UBL9 1-471): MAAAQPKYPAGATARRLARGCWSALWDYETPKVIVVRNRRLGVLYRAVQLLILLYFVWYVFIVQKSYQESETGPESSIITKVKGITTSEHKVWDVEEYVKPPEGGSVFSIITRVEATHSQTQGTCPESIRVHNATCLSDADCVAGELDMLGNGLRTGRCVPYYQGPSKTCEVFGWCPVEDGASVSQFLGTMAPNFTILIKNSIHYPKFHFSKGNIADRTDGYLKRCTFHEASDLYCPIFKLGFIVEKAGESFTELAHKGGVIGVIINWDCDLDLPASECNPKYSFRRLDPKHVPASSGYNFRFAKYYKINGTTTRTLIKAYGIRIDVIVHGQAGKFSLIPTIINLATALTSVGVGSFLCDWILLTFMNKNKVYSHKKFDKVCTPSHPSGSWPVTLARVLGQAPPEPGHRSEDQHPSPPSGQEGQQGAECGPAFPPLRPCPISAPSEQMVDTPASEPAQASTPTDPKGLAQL

[2] = molecular target: T1, h-P2X2R; assay: Mode of inhibition: ATP dose-response curve without and with inhibitor, h-P2X2R
[3] = molecular target: T2, h-P2X4R (Homo sapiens, UniProt Q99571); assay: Ca2+ influx assay
T2 sequence (Q99571 1-388): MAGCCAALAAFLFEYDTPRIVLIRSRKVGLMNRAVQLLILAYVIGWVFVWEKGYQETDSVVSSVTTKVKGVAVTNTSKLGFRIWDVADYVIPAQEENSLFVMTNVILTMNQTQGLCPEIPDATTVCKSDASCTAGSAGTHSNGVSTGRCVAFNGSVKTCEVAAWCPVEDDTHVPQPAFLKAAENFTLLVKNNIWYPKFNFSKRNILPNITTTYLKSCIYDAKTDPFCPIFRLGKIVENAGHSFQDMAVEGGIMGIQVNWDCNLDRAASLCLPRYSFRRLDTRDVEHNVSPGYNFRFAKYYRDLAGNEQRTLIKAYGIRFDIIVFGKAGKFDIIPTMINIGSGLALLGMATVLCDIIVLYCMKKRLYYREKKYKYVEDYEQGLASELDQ

[4] = molecular target: T2, h-P2X4R; assay: Mode of inhibition: ATP dose-response curve without and with inhibitor, h-P2X4R
[5] = molecular target: h-P2X5 receptor (Homo sapiens, UniProt Q93086); assay: Ca2+ influx assay
Sequence of h-P2X5 receptor (Q93086 whole entry): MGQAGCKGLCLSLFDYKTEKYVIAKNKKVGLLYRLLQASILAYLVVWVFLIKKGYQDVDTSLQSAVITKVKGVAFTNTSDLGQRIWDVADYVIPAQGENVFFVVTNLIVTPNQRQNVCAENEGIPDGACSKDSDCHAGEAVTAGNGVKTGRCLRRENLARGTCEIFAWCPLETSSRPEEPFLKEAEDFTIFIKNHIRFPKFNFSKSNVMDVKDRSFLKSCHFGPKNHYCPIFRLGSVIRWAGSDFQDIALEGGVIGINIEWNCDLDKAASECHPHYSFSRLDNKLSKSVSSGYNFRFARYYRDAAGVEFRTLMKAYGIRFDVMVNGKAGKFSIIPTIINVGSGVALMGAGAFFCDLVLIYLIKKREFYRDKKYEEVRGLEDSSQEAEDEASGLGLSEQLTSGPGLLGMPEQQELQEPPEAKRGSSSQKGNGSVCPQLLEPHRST

- EC50 [1]: 1480 nM
- EC50 [2]: 1080 nM
- EC50 [3]: 9290 nM
- EC50 [4]: 2590 nM
- EC50 [5]: 10600 nM
SMILES: Nc1ncnc2c1ncn2[C@@H]1O[C@H](COP(=O)(O)OP(=O)(O)OP(=O)(O)O)[C@@H](O)[C@H]1O [ATP, adenosine triphosphate, reference compound]
